Measurements published in patent US7329681B2, “Inhibitors of IMPDH enzyme” (Vertex Pharmaceuticals Incorporated, priority 1996, dated 2008).
Like-named read-outs stand apart in the source and are kept apart here.

Target: IMPDH human type II (Homo sapiens, UniProt P12268)
Assay: IMPDH activity inhibition assay (spectrophotometric, NADH formation at 340 nm)
Format: biochemical
Protocol: We have measured the inhibition constants of each compound against IMPDH using an adaptation of the method first reported by […]. Moyed, and […]. Biol. Chem., 226, p. 339 (1957)]. We measured the inhibition constants of the compounds listed in Table III utilizing the following protocol: IMP dehydrogenase activity was assayed following an adaptation of the method first reported by […]. Moyed, H. S. and […]. Biol. Chem. 226, 339]. Enzyme activity was measured spectrophotometrically, by monitoring the increase in absorbance at 340 nm due to the formation of NADH (ε340 is 6220 M^-1 cm^-1). The reaction mixture contained 0.1 M Tris pH 8.0, 0.1 M KCl, 3 mM EDTA, 2 mM DTT, […] and enzyme (IMPDH human type II) at a concentration of 15 to 50 nM. This solution is incubated at 37° C. for 10 minutes. The reaction is started by adding NAD to a final concentration of 0.1 M and the initial rate is measured by following the linear increase in absorbance at 340 nm for 10 minutes. For reading in a standard spectrophotometer (path length 1 cm) the final volume in the cuvette is 1.0 ml. The assay has also been adapted to a 96 well microtiter plate format; in this case the concentrations of all the reagents remain the same and the final volume is decreased to 200 μl. For the analysis of inhibitors, the compound in question is dissolved in DMSO to a final concentration of 20 mM and added to the initial assay mixture for preincubation with the enzyme at a final volume of 2-5% (v/v). The reaction is started by the addition of NAD, and the initial rates measured as above. […] The designation “ND” is used where a given compound was not tested.

[1] = IMPDH human type II, 15 to 50 nM enzyme, 37° C., tight-binding fit (Henderson), read-out: Ki

Structure (SMILES) | Ki [1] | Ki
COc1ccc(Cl)cc1NC(=O)Nc1ccc(OC)c(OC)c1 [Compound 35] | 1000 to 10000 nM | 
CN(C)c1cccc(NC(=O)Nc2ccc(-c3cnco3)cc2)c1 [Compound 49] | 1000 to 10000 nM | 
O=C(Nc1ccc(-c2cnco2)cc1)Nc1cccc(C(F)(F)F)c1 [Compound 18] | 1000 to 10000 nM | 
Cc1cccc(NC(=O)Nc2ccc(-c3ocnc3C)c(Cl)c2)c1 [Compound 76] | 1000 to 10000 nM | 
O=C(Nc1ccccc1)Nc1ccc(-c2cnco2)c(F)c1 [Compound 45] | 1000 to 10000 nM | 
COC(=O)NCc1cccc(NC(=O)Nc2ccc(-c3cnco3)c(OC)c2)c1 [Compound 118] |  | 1000 to 10000 nM
Cc1cccc(NC(=O)Nc2ccc(C#N)c(Cl)c2)c1 [Compound 70] | 1000 to 10000 nM | 
CC(=O)OCc1cc(NC(=O)Nc2cccc(C)c2)ccc1-c1cnco1 [Compound 101] | 1000 to 10000 nM | 
Cc1cccc(NC(=O)Nc2cccc([N+](=O)[O-])c2)c1 [Compound 32] | > 10000 nM | 
O=C(Nc1ccc(-c2cnco2)c(Cl)c1)Nc1ccc(-c2cnco2)c(Cl)c1 [Compound 61] | > 10000 nM | 
C=CCOC(=O)NCc1cccc(NC(=O)Nc2ccc(-c3cnco3)c(OC)c2)c1 [Compound 125] |  | 0.01 to 50 nM
CSc1cccc(NC(=O)Nc2ccc(-c3cnco3)cc2)c1 [Compound 6] | 1000 to 10000 nM | 
O=C(Nc1ccc(-c2cnco2)cc1)Nc1cccnc1 [Compound 29] | > 10000 nM | 
C#Cc1cccc(NC(=O)Nc2ccc(-c3cnco3)cc2)c1 [Compound 26] | 1000 to 10000 nM | 
CC(C)(C)OC(=O)NCc1cccc(NC(=O)Nc2cccc(CNC(=O)OC(C)(C)C)c2)c1 [Compound 103] | 1000 to 10000 nM | 
COc1ccc(NC(=O)Nc2cccc(C)c2)cc1CO [Compound 90] | 1000 to 10000 nM | 
O=C(Nc1ccc(-c2cnco2)cc1)Nc1cccc(-c2ccoc2)c1 [Compound 53] | 1000 to 10000 nM | 
O=C(Nc1ccncc1)Nc1ccc(-c2cnco2)cc1 [Compound 30] | 1000 to 10000 nM | 
O=C(Nc1ccc(-c2cnco2)cc1)Nc1ccc(Cl)c(C(F)(F)F)c1 [Compound 9] | 1000 to 10000 nM | 
COC(=O)c1ccc(OC(=O)NCc2cccc(NC(=O)Nc3ccc(-c4cnco4)c(OC)c3)c2)cc1 [Compound 123] |  | 0.01 to 50 nM
O=C(Nc1ccc(-c2cnco2)cc1)Nc1ccc([N+](=O)[O-])cc1 [Compound 16] | 1000 to 10000 nM | 
COc1ccc(NC(=O)Nc2cccc([N+](=O)[O-])c2)cc1Cl [Compound 52] | 1000 to 10000 nM | 
COc1ccc(NC(=O)Nc2cccc(Br)c2)cc1OC [Compound 34] | 1000 to 10000 nM | 
COc1cccc(NC(=O)Nc2ccc(-c3cnco3)cc2)c1 [Compound 13] | 1000 to 10000 nM | 
Cc1ccc(NC(=O)Nc2ccc(-c3cnco3)c(Cl)c2)s1 [Compound 86] | 1000 to 10000 nM | 
Cc1cccc(NC(=O)Nc2ccc(C#N)cc2)c1 [Compound 33] | > 10000 nM | 

Structure (SMILES) | Ki [1] | Ki
O=C(Nc1ccc(-c2cnco2)cc1)Nc1cccc(F)c1 [Compound 20] | 1000 to 10000 nM | 
Cc1cccc(NC(=O)Nc2ccc(-c3cnco3)c(C)c2)c1 [Compound 75] | 51 to 1000 nM | 
Cc1cc(NC(=O)Nc2ccc(-c3cnco3)c(Cl)c2)ccn1 [Compound 62] | 1000 to 10000 nM | 
Nc1cccc(NC(=O)Nc2ccc(-c3cnco3)cc2)c1 [Compound 24] | 51 to 1000 nM | 
O=C(Nc1ccc(-c2cnco2)cc1)Nc1ccc(F)c([N+](=O)[O-])c1 [Compound 104] | 1000 to 10000 nM | 
COc1cc(NC(=O)Nc2cccc(NC(=O)CC3CCCC3)c2)ccc1-c1cnco1 [Compound 114] | 51 to 1000 nM | 
Cc1cccc(NC(=O)Nc2ccc(-c3cnco3)c(N)c2)c1 [Compound 109] | 51 to 1000 nM | 
Cc1cc(N)cc(NC(=O)Nc2ccc(-c3cnco3)cc2)c1 [Compound 58] | 1000 to 10000 nM | 
O=C(Nc1ccc(-c2cnco2)cc1)Nc1ccsc1 [Compound 3] | 51 to 1000 nM | 
Cc1cccc(NC(=O)Nc2ccc(-c3cnco3)c(F)c2)c1 [Compound 46] | 51 to 1000 nM | 
COC(=O)Nc1cccc(NC(=O)Nc2ccc(-c3cnco3)c(Cl)c2)c1 [Compound 71] | 1000 to 10000 nM | 
Cc1cccc(NC(=O)Nc2ccc(-c3cnco3)c(CO)c2)c1 [Compound 102] | 1000 to 10000 nM | 
COC(=O)Cc1cccc(NC(=O)Nc2ccc(-c3cnco3)cc2)c1 [Compound 47] | 51 to 1000 nM | 
Cc1cnc(NC(=O)Nc2ccc(-c3cnco3)cc2)s1 [Compound 31] | > 10000 nM | 
COc1cc(NC(=O)Nc2cccc(CNC(=O)Oc3cccnc3)c2)ccc1-c1cnco1 [Compound 137] |  | 51 to 1000 nM
O=C(Nc1ccc(-c2cnco2)cc1)Nc1cccc(Cl)c1 [Compound 22] | 1000 to 10000 nM | 
Cc1c(Cl)cccc1NC(=O)Nc1ccc(-c2cnco2)cc1 [Compound 10] | 1000 to 10000 nM | 
COc1cc(NC(=O)Nc2cccc(NC(=O)c3ccccc3)c2)ccc1-c1cnco1 [Compound 110] | 51 to 1000 nM | 
COC(=O)Cc1cccc(NC(=O)Nc2ccc(-c3cnco3)c(Cl)c2)c1 [Compound 57] | 51 to 1000 nM | 
COC(=O)c1cc(NC(=O)Nc2cccc([N+](=O)[O-])c2)ccc1-c1cnco1 [Compound 89] | 1000 to 10000 nM | 
O=C(Nc1ccc(-c2cnco2)cc1)Nc1cccc(S(=O)(=O)NC2CCCCC2)c1 [Compound 80] | 1000 to 10000 nM | 
CC(=O)N(C)c1cccc(NC(=O)Nc2ccc(C#N)c(S(C)(=O)=O)c2)c1 [Compound 166] | > 10000 nM | 
COc1ccccc1NC(=O)Nc1ccc(-c2cnco2)cc1 [Compound 12] | 1000 to 10000 nM | 
NC(=O)c1cccc(NC(=O)Nc2ccc(-c3cnco3)cc2)c1 [Compound 51] | > 10000 nM | 
O=C(Nc1ccc(-c2cnco2)cc1)Nc1cccc(O)c1 [Compound 27] | 1000 to 10000 nM | 
CC1(c2cccc(NC(=O)Nc3ccc(-c4cnco4)cc3)c2)OCCO1 [Compound 50] | > 10000 nM | 

Further lines, with some results ahead:

Ki [1] | Structure (SMILES) | Ki
51 to 1000 nM | Cc1cccc(NC(=O)Nc2ccc(-c3cnco3)cc2)c1 [Compound 17] | 
0.01 to 50 nM | COc1cc(NC(=O)Nc2cccc(NC(=O)Oc3ccccc3)c2)ccc1-c1cnco1 [Compound 99] | 
51 to 1000 nM | COc1cc(NC(=O)Nc2cccc(N(C)C(C)=O)c2)ccc1C#N [Compound 164] | 
51 to 1000 nM | COc1cc(NC(=O)Nc2cccc(NC(=O)OCc3cccnc3)c2)ccc1-c1cnco1 [Compound 98] | 
0.01 to 50 nM | COc1cc(NC(=O)Nc2cccc(CNC(=O)OCCCCCO)c2)ccc1-c1cnco1 [Compound 141] | 
0.01 to 50 nM | COc1cc(NC(=O)Nc2cccc(CNC(=O)OC3CCCSC3)c2)ccc1-c1cnco1 (centres unmarked) [Compound 161] | 
0.01 to 50 nM | COc1cc(NC(=O)Nc2cccc(CNC(=O)OCC3CCOC(C)(C)O3)c2)ccc1-c1cnco1 (centres unmarked) [Compound 146] | 
51 to 1000 nM | O=C(Nc1ccc(-c2cnco2)c(Cl)c1)Nc1cccs1 [Compound 68] | 
0.01 to 50 nM | COc1cc(NC(=O)Nc2cccc(CNC(=O)OCCCCO)c2)ccc1-c1cnco1 [Compound 140] | 
51 to 1000 nM | Cc1cccc(NC(=O)Nc2ccc(-c3ocnc3C)cc2)c1 [Compound 77] | 
0.01 to 50 nM | COc1cc(NC(=O)Nc2cccc(CNC(=O)OCCCSC)c2)ccc1-c1cnco1 [Compound 145] | 
0.01 to 50 nM | COc1cc(NC(=O)Nc2cccc(CNC(=O)OC3CCCCC3)c2)ccc1-c1cnco1 [Compound 132] | 
51 to 1000 nM | COc1cc(NC(=O)Nc2cccc(CNC(=O)OCC3CCCCN3C(=O)OC(C)(C)C)c2)ccc1-c1cnco1 (centres unmarked) [Compound 152] | 
0.01 to 50 nM | COc1cc(NC(=O)Nc2cccc(N(C)C(=O)C(F)(F)F)c2)ccc1-c1cnco1 [Compound 97] | 
51 to 1000 nM | COc1cc(NC(=O)Nc2cccc(NC(=O)C(F)F)c2)ccc1-c1cnco1 [Compound 100] | 
51 to 1000 nM | COc1cc(NC(=O)Nc2cccc(CN(C)C(=O)OC(C)(C)C)c2)ccc1-c1cnco1 [Compound 117] | 
51 to 1000 nM | CSc1cc(NC(=O)Nc2cccc(CNC(=O)O[C@H]3CCOC3)c2)ccc1C#N [Compound 168] | 
51 to 1000 nM | O=C(Nc1ccsc1)Nc1ccc(-c2cnco2)c(Cl)c1 [Compound 69] | 
0.01 to 50 nM | COc1cc(NC(=O)Nc2cccc(CNC(=O)OCC3CCCCN3)c2)ccc1-c1cnco1 (centres unmarked) [Compound 159] | 
51 to 1000 nM | COc1cc(NC(=O)Nc2cccc(CNC(=O)OC(CO)CO)c2)ccc1-c1cnco1 [Compound 151] | 
0.01 to 50 nM | COc1cc(NC(=O)Nc2cccc(CNC(=O)OC3CCOC3)c2)ccc1-c1cnco1 (centres unmarked) [Compound 136] | 
51 to 1000 nM | O=C(Nc1cccc([N+](=O)[O-])c1)Nc1ccc(-c2cnco2)c(Br)c1 [Compound 64] | 
0.01 to 50 nM | COc1cc(NC(=O)Nc2cccc(CNC(=O)OCc3ccccc3)c2)ccc1-c1cnco1 [Compound 138] | 
0.01 to 50 nM | CSc1cc(NC(=O)Nc2cccc(CNC(=O)O[C@H]3CCOC3)c2)ccc1C#N [Compound 165] | 
0.01 to 50 nM | COc1cc(NC(=O)Nc2cccc(N(C)C(C)=O)c2)ccc1-c1cnco1 [Compound 107] | 
51 to 1000 nM | COc1cc(NC(=O)Nc2cccc(CNC(=O)OCCCS(C)(=O)=O)c2)ccc1-c1cnco1 [Compound 157] | 
0.01 to 50 nM | COc1cc(NC(=O)Nc2cccc(CNC(=O)OC3CCCC3)c2)ccc1-c1cnco1 [Compound 133] | 
0.01 to 50 nM | COc1cc(NC(=O)Nc2cccc(CNC(=O)OCC3CCNCC3)c2)ccc1-c1cnco1 [Compound 155] | 
